Laboratory results taken from US12378521B2, “Method for enhancing production of genetically engineered autologous T cells” (AMGEN INC., priority 2020, dated 2025).

Legend:
T cells [1] = test: Leukocyte subsets in harvested T cells by immunophenotyping; assay type: cell-based, human; conditions: at harvest, both conditions
Method: Analysis of human B cells (CD19), monocytes (CD14), NK cells (CD56/16), NKT cells (CD3+CD56+), and T cells (CD3+Cd56−) were performed by immunophenotyping.

glycolysis = test: Glucose and lactate concentrations in culture (Cedex Bio Analyzer); assay type: cell-based, human
Method: Glucose and lactate were measured using Cedex Bio Analyzer (Roche, Indianapolis, IN). […] In addition, the effect of 2-DG was reversible as restoration of glucose (A) and lactate (B) levels was found after removal of 2-DG from the media from Day 7 to 14.

apheresed donor cells = test: Growth and viability of cells expanded in media supplemented with 2-DG; assay type: cell-based, human
Method: A portion of the washed apheresed donor cells comprising 1.2E9 nucleated cells were transferred into two transfer bags under the Dilute program using Sepax C-Pro processing system with the same CS-600.1 Kit (a new kit was not used). Into one bag was added about 8 ml of Media 1 (OpTmizer™ complete media containing 300 IU/mL rhIL-2 (ThermoFisher) and 2 mM 2-Deoxy-D-glucose (2-DG) (MilliporeSigma, Burlington, MA)). Into the second bag was added about 8 ml of Media 2 (OpTmizer™ complete media containing 300 IU/mL rhIL-2 (ThermoFisher)). To each was added 7.5 ml Immunocult™ anti-CD3/CD28/[…] (25 μl/ml media with cells, Stemcell Technologies). The amount of activator was determined based on the culture volume of 300 ml that was used in the culture/activation step below. The bags were incubated for 1 hour at room temperature to allow for saturation of antibody binding.
A 2 L XURI® SP Perf Cellbag bioreactor (GE Healthcare) was connected to a XURI® Cell Expansion System W25 and 300 ml Media 1 was added and allowed to equilibrate at 37° C., 5% CO2, gas flow rate of 0.1 L/min, and a rocking rate of 6 rpm at a 6° angle. […]
On Day 1, the nucleated cells in each bag were counted and the amount of a lentiviral vector (comprising a polynucleotide encoding a TCR) corresponding to a MOI of 1 functional titer was diluted in 10 ml of Media 1 or Media 2 and placed in transfer bags. […]
On Day 2, about half the volume of the culture media in each bioreactor bag was exchanged using three 50 ml bag washouts through feed-line and waste-line. Cell counts were taken daily and viable cell density (VCD), viability, dissolved oxygen, metabolites were determined as described above. Cell phenotypes were determined for all samples tested. […]
Total viable cell density, viability, glucose and lactate measurements were taken each day. Phenotyping was determined on Days 3, 5 and 7. […]
Total viable cell density, viability, glucose and lactate measurements were taken each day. Phenotyping was determined on Days 9 and 14.

T cells [2] = test: Transgene expression of cells expanded in media with 2-DG; assay type: cell-based, human
Method: On Day 1, the nucleated cells in each bag were counted and the amount of a lentiviral vector (comprising a polynucleotide encoding a TCR) corresponding to a MOI of 1 functional titer was diluted in 10 ml of Media 1 or Media 2 and placed in transfer bags. The transfer bags were sterile welded on XURI® Cellbag feed-lines and the lentivirus was then transferred into each of the bioreactors via gravity flow. The cells were incubated at 37° C., 5% CO2, gas flow rate of 0.1 L/min, and a rocking rate of 2 rpm at a 2° angle, for 20-24 hours.
In contrast, transgene expression of T cell in non-2-DG media decreased to 44.4% at high cell density ([…]).

T cells [3] = test: CD25 expression by cells expanded in media with 2-DG; assay type: cell-based, human
Text: Even through CD25 expression by T cells in both conditions saturated at ±80%. T cells in 2-DG media retained CD25 better at Days[…] and 9 than the cells in the non-2-DG media. This may be due to the higher transgene expression and T cell yield for T cells generated in the 2-DG media.

T2 cells [4] = test: Potency assay: cytotoxicity against peptide-pulsed T2 cells expressing Luciferase; assay type: cell-based; conditions: peptide 1 μM, E:T 1:1, 48 hours
Method: (§1) T2 cells expressing Luciferase were pulsed with the peptide recognized by the engineered TCR or with DMSO for 4 hours and the cells were washed before setting up a co-culture assay with 20,000 total T cells at a 1:1 (E:T) ratio. (A) 48 hours later, the luciferase signal was measured using the Steady Glo® Luciferase Assay System (Promega). Specific cytotoxicity was measured relative to the no peptide T2 cells cultured with the TCR T cells. (B) IFN-γ expression was measured using the AlphaLISA® detection kit (Perkin Elmer Waltham, MA) after 24 hours of co-culture. […] In addition, 24 hour accumulated release of IFN-γ was higher for T cells in non-2-DG media cross all concentration of peptide tested. […] Culture media containing 2-DG was used throughout the entire process (10 days).

T cells [5] = test: T cell differentiation phenotyping (Tscm, Tcm, Tem) with 2-DG; assay type: cell-based, human
Method: Tscm, Tcm, Tem, and Tte subsets were analyzed by immunophenotyping based on their expression of CD45RA, CD45RO, CD95, and CCR7.
2-DG was added to culture medium between Days 0 and 7 and the feed medi was replaced with non-2-DG media (Media 1) from Days 7-14. […] The T cells continued differentiation after 2-DG was perfused out from culture media and ended at a similar level of differentiation as T cells in non-2-DG media (Media 1).
as §1

T2 cells [6] = test: IFN-γ expression after co-culture with T2 cells (AlphaLISA); assay type: cell-based; conditions: 24 hours co-culture, all peptide concentrations tested
Method: as §1

Compound: O=CC[C@@H](O)[C@H](O)[C@H](O)CO [2-DG, 2-deoxy-D-glucose]
- CD3+ cell purity (T cells [1]): above 98%
- Glucose concentration in spent media compared to non-2-DG condition (glycolysis; 2-DG media (Media 1)): higher glucose concentration
- Lactate concentration in spent media compared to non-2-DG condition (glycolysis; 2-DG media (Media 1)): higher lactate concentration
- Effect on glucose and lactate levels after removal of 2-DG (glycolysis; 2-DG removed from media Day 7 to 14): reversible
- T cells yielded (apheresed donor cells; 2 mM 2-DG media, 14 days, without 2-DG 25 billion): 35 billion T cells
- Viability compared with non-2-DG media (apheresed donor cells; Day 4 to Day 10): slightly higher viability
- Overall viability (apheresed donor cells; both media conditions): above 70%
- Transgene expression by T cells (T cells [2]; 2-DG media, non-2-DG media 54%): 56%
- Transgene expression at high cell density (T cells [2]; cell density 35 billion cells/ml, non-2-DG media 44.4% at 25 billion cells/ml): 50.4%
- CD25 expression in response to activation (T cells [3]; 2-DG media, non-2-DG media 46%): 32%
- CD25 expression at saturation (T cells [3]; both conditions): ~80%
- T2 cell lysis versus T cells from non-2-DG media (T2 cells [4]): No significant difference
- collected Tscm and Tcm subsets (T cells [5]; 2-DG throughout entire process (10 days), non-2-DG media 43%): 59%
- Tscm subset (T cells [5]; Day 5, non-2-DG media 14%): 26%
- combined Tcm and Tscm (T cells [5]; Day 7, non-2-DG media 56%): 86%
- 24 hour accumulated release of IFN-γ versus non-2-DG media (T2 cells [6]): lower level of IFN-γ
